Where “and” joins values, the source holds several entries; their conditions need not be identical. Equal values may be shown once. Numbers after ± are expanded uncertainties.
Tests used:
[1] = refractive index (Na D-line) (dimensionless); xn = mol fraction of the nth substance listed; conditions: 101 kPa, Liquid, x2 = 0
[2] = xn = mol fraction of the nth substance listed; conditions: x2 = 0; for mass density / speed of sound / viscosity: 101 kPa, Liquid
[3] = for mass density / speed of sound / viscosity: Liquid
[4] = refractive index (Na D-line) (dimensionless); conditions: 101.33 kPa, Liquid

Row | SMILES | refractive index ([1]; 303.15 K) | refractive index ([1]; 313.15 K) | refractive index ([1]; 323.15 K) | surface tension liquid-gas ([2]; 303.15 K) | mass density ([2]; 303.15 K) | surface tension liquid-gas ([3]; 303.15 K) | mass density ([3]; 303.15 K, 101 kPa) | speed of sound ([3]; 303.15 K, 101 kPa) | viscosity ([3]; 303.15 K, 101 kPa) | surface tension liquid-gas ([3]; 313.15 K) | mass density ([3]; 313.15 K, 101 kPa) | speed of sound ([3]; 313.15 K, 101 kPa) | viscosity ([3]; 313.15 K, 101 kPa) | surface tension liquid-gas ([3]; 323.15 K) | mass density ([3]; 323.15 K, 101 kPa) | speed of sound ([3]; 323.15 K, 101 kPa) | viscosity ([3]; 323.15 K, 101 kPa) | refractive index ([4]; 303.15 K) | refractive index ([4]; 313.15 K) | refractive index ([4]; 323.15 K) | other results
1 | CCc1ccccc1 [ethylbenzene] + CC(=O)CC(C)(C)O | 1.4985 ± 0.0026 | 1.4901 ± 0.0026 | 1.4821 ± 0.0026 | 30.01 ± 0.86 mN/m | 867 ± 3.9 kg/m3 |  |  |  |  |  |  |  |  |  |  |  |  |  |  |  | speed of sound ([2]; 303.15 K): 1335 ± 6 m/s; viscosity ([2]; 303.15 K): 0.577 ± 0.047 mPa·s; surface tension liquid-gas ([2]; 313.15 K): 29.04 ± 0.83 mN/m; mass density ([2]; 313.15 K): 842 ± 3.9 kg/m3; speed of sound ([2]; 313.15 K): 1289 ± 6 m/s; viscosity ([2]; 313.15 K): 0.5914 ± 0.048 mPa·s; surface tension liquid-gas ([2]; 323.15 K): 28.12 ± 0.81 mN/m; mass density ([2]; 323.15 K): 832.1 ± 4.1 kg/m3; speed of sound ([2]; 323.15 K): 1204 ± 5 m/s; viscosity ([2]; 323.15 K): 0.4841 ± 0.041 mPa·s
2 | O=[N+]([O-])c1ccccc1 [nitrobenzene] |  |  |  |  |  | 40.9 ± 1.1 mN/m | 1200 ± 10 kg/m3 | 1413 ± 6 m/s | 1.617 ± 0.076 mPa·s | 38.24 ± 1.1 mN/m | 1196 ± 11 kg/m3 | 1318 ± 6 m/s | 1.465 ± 0.069 mPa·s | 36.47 ± 1 mN/m | 1185 ± 12 kg/m3 | 1221 ± 5 m/s | 1.343 ± 0.064 mPa·s | 1.5504 ± 0.005 | 1.5476 ± 0.005 | 1.5435 ± 0.005 | 
3 | Cc1ccccc1 [toluene] |  |  |  |  |  |  |  |  |  |  |  |  |  |  |  |  |  |  |  |  | viscosity ([3]; 298.15 K, 101.33 kPa, Capillary tube (Ostwald / Ubbelohde) method): 0.555 ± 0.0042 mPa·s; mass density ([3]; 298.15 K, 101.33 kPa, Pycnometric method): 862.4 ± 1 kg/m3
4 | CC(=O)CC(C)(C)O [4-hydroxy-4-methylpentan-2-one] |  |  |  |  |  | 29.44 ± 0.85 mN/m | 936 ± 7.8 kg/m3 | 1256 ± 6 m/s | 2.89 ± 0.13 mPa·s | 28.92 ± 0.84 mN/m | 912 ± 8.3 kg/m3 | 1183 ± 5 m/s | 2.791 ± 0.13 mPa·s | 28.12 ± 0.82 mN/m and 27.12 ± 0.8 mN/m | 901 ± 8.9 kg/m3 | 1121 ± 5 m/s | 2.67 ± 0.12 mPa·s | 1.4239 ± 0.005 | 1.4198 ± 0.005 | 1.4151 ± 0.005 | mass density ([3]; 293.15 K, 101 kPa): 938 ± 7 kg/m3; viscosity ([3]; 293.15 K, 101 kPa): 2.89 ± 0.13 mPa·s
5 | CCc1ccccc1 [ethylbenzene] |  |  |  |  |  | 30.01 ± 0.86 mN/m | 867 ± 3.9 kg/m3 | 1335 ± 6 m/s | 0.577 ± 0.047 mPa·s | 29.04 ± 0.83 mN/m | 842 ± 3.9 kg/m3 | 1289 ± 6 m/s | 0.5914 ± 0.048 mPa·s | 28.12 ± 0.81 mN/m | 832.1 ± 4.1 kg/m3 | 1204 ± 5 m/s | 0.4841 ± 0.041 mPa·s | 1.4985 ± 0.0026 | 1.4901 ± 0.0026 | 1.4821 ± 0.0026 | 
6 | O=[N+]([O-])c1ccccc1 [nitrobenzene] + CC(=O)CC(C)(C)O | 1.5504 ± 0.005 | 1.5476 ± 0.005 | 1.5435 ± 0.005 | 40.9 ± 1.1 mN/m | 1200 ± 10 kg/m3 |  |  |  |  |  |  |  |  |  |  |  |  |  |  |  | speed of sound ([2]; 303.15 K): 1413 ± 6 m/s; viscosity ([2]; 303.15 K): 1.617 ± 0.076 mPa·s; surface tension liquid-gas ([2]; 313.15 K): 38.24 ± 1.1 mN/m; mass density ([2]; 313.15 K): 1196 ± 11 kg/m3; speed of sound ([2]; 313.15 K): 1318 ± 6 m/s; viscosity ([2]; 313.15 K): 1.465 ± 0.069 mPa·s; surface tension liquid-gas ([2]; 323.15 K): 36.47 ± 1 mN/m; mass density ([2]; 323.15 K): 1185 ± 12 kg/m3; speed of sound ([2]; 323.15 K): 1221 ± 5 m/s; viscosity ([2]; 323.15 K): 1.343 ± 0.064 mPa·s

Source: the NIST ThermoML archive (doi:10.1021/je8002699)
